According to US11897867B2, “6-phenyl-4,5-dihydropyridazin-3(2H)-one derivatives as PDE3A and PDE3B inhibitors for treating cancer” (Bayer Aktiengesellschaft, priority 2017, dated 2024):

Key:
[1] = target: T1, human full length PDE3B (Homo sapiens, UniProt Q13370); assay: PDE3B enzyme inhibition (3H-cAMP Scintillation Proximity Assay); assay type: biochemical; conditions: PDE3B cell extract from Sf9 cells, 60 min room temperature; read-out: Target IC50 PDE3B IC50
T1 construct: Sf9 cells overexpressing human full length PDE3B; purchased SB Drug Discovery, UK; host or cells: Sf9 cells (cell extract)
T1 sequence (Q13370 whole entry): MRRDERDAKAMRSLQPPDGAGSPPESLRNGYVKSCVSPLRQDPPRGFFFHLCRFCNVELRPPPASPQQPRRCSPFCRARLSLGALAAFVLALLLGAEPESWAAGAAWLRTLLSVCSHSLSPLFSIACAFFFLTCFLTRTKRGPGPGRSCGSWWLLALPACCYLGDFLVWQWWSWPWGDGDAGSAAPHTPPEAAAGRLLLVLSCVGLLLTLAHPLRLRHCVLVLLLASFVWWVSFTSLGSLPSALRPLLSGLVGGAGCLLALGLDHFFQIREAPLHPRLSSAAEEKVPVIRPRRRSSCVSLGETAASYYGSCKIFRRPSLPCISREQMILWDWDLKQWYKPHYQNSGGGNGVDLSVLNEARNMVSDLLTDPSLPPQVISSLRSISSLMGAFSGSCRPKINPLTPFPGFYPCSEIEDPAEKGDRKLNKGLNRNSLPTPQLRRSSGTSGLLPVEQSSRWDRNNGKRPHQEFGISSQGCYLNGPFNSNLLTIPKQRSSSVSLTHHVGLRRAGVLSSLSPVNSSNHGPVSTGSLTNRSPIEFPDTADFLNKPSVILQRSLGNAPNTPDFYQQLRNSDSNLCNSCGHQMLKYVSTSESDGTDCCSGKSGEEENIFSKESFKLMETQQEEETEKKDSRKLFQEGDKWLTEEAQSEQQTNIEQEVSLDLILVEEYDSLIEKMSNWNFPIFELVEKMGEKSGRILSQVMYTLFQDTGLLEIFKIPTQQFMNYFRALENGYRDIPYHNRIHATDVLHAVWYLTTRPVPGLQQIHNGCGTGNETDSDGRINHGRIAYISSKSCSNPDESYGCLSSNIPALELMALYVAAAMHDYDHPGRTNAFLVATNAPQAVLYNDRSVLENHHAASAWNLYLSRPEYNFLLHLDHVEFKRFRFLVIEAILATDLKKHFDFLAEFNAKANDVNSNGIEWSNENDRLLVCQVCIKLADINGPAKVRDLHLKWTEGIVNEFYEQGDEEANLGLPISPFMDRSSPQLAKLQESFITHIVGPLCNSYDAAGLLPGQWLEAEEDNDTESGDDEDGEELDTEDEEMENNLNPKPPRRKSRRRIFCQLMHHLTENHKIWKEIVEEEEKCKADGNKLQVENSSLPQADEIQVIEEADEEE
Procedure: The commercially available 3H-cAMP Scintillation Proximity Assay (SPA, Perkin Elmer) system was used for enzyme inhibition studies. For the determination of the in vitro effect of test substances on the PDE3B reactions 2 μl of the respective test compound solution in DMSO (serial dilutions) were placed in wells of microtiter plates (Isoplate-96/200W; Perkin Elmer). 50 μl of a dilution of PDE3B cell extract from Sf9 cells overexpressing human full length PDE3B (SB Drug Discovery, UK) in buffer A (50 mM Tris/HCl pH 7.5, 8.3 mM MgCl2, 1.7 mM EDTA, 0.2% BSA) was added. The dilution of the PDE3B cell extract was chosen such that the reaction kinetics was linear and less than 70% of the substrate was consumed (typical dilution 1:6000). The reaction was started by addition of 50 μl (0.025 μCi) of 1:2000 in buffer A w/o BSA diluted substrate [8-3H] adenosine 3′,5′-cyclic phosphate (1 μCi/μl; Perkin Elmer). After incubation at room temperature for 60 min, the reaction was stopped by addition of 25 μl of a suspension containing 18 mg/ml yttrium scintillation proximity beads (Perkin Elmer) in water. The microtiter plates were sealed and measured in a Microbeta scintillation counter (PerkinElmer Wallac). IC50 values were determined from sigmoidal curves by plotting percentage PDE3B activity vs log compound concentration.

[2] = test system: HeLa cells (cervical cancer); assay: Cell proliferation measurement (Cell Titer Glo), HeLa; assay type: cell-based; conditions: Homo sapiens, 72 h treatment, read-out: Anti-proliferation IC50 HeLa (Cervical cancer)
Procedure: (§1) The antiproliferative activity of the compounds of the general formula (I) was examined in vitro in human cancer cells. For this purpose, 1000 cells (or 500 HeLa cells) were plated in 384-well plates with appropriate growth medium and incubated at 37° C. overnight. After 24 h, the cells on the test plate were treated with the compounds of the general formula (I) as and incubated at 37° C. for 72 h. The compounds were added to the cells by means of an HP D300 digital dispenser in a 10 (or more)-step dilution series. As control, the cells were treated with vehicle (DMSO at 0.3% final concentration). After 72 h, the cells were treated with 20 μl/well of 50% CTG solution in PBS (Promega Cell Titer Glo (catalogue #G755B and G756B)) and incubated at room temperature for 10 min, and luminescence was measured by means of a VICTOR V (Perkin Elmer), in order to determine cell viability at the end of treatment. The percentage effect on cell growth and the IC50 derived therefrom were determined for each test substance using the values from untreated wells (=percent viability). The IC50 values were calculated using a 4-parameter fit.

[3] = target: T2, human full length PDE3A (Homo sapiens, UniProt Q14432); assay: PDE3A enzyme inhibition (3H-cAMP Scintillation Proximity Assay); assay type: biochemical; conditions: PDE3A cell extract from Sf9 cells, 60 min room temperature; read-out: Target IC50 PDE3A IC50
T2 construct: Sf9 cells overexpressing human full length PDE3A; purchased SB Drug Discovery, UK; host or cells: Sf9 cells (cell extract)
T2 sequence (Q14432 whole entry): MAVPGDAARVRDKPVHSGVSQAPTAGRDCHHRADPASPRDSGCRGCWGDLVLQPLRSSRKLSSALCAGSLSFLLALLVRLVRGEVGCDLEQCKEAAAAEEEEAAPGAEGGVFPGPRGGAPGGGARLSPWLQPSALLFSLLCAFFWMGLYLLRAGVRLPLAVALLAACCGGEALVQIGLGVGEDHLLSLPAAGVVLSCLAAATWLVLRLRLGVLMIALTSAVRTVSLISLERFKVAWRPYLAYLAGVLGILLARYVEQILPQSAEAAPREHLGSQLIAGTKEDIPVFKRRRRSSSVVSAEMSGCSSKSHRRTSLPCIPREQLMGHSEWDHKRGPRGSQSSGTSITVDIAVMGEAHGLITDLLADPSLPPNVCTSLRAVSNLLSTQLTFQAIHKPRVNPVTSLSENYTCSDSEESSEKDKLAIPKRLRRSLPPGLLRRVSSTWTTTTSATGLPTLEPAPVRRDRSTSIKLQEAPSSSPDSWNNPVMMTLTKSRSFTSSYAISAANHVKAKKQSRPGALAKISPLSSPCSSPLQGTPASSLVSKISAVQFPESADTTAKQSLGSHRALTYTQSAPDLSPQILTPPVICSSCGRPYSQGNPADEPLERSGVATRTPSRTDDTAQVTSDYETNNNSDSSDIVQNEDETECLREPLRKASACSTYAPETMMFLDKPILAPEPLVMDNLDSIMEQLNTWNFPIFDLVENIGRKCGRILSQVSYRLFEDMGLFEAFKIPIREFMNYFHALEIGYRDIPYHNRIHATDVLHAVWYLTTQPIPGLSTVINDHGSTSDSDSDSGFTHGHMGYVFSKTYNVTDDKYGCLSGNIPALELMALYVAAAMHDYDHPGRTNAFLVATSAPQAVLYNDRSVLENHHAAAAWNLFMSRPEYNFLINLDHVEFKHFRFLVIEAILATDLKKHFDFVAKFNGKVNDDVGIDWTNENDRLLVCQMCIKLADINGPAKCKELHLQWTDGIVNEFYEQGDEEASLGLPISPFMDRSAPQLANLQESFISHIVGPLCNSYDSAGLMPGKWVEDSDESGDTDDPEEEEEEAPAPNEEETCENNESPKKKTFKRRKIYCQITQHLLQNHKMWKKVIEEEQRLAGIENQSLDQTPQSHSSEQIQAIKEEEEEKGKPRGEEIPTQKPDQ
Procedure: The commercially available 3H-cAMP Scintillation Proximity Assay (SPA, Perkin Elmer) system was used for enzyme inhibition studies. For the determination of the in vitro effect of test substances on the PDE3A reactions 2 μl of the respective test compound solution in DMSO (serial dilutions) were is placed in wells of microtiter plates (Isoplate-96/200W; Perkin Elmer). 50 μl of a dilution of PDE3A cell extract from Sf9 cells overexpressing human full length PDE3A (SB Drug Discovery, UK) in buffer A (50 mM Tris/HCl pH 7.5, 8.3 mM MgCl2, 1.7 mM EDTA, 0.2% BSA) was added. The dilution of the PDE3A cell extract was chosen such that the reaction kinetics was linear and less than 70% of the substrate was consumed (typical dilution 1:5000). The reaction was started by addition of 50 μl (0.025 μCi) of 1:2000 in buffer A w/o BSA diluted substrate [8-3H] adenosine 3′,5′-cyclic phosphate (1 μCi/μl; Perkin Elmer). After incubation at room temperature for 60 min, the reaction was stopped by addition of 25 μl of a suspension containing 18 mg/ml yttrium scintillation proximity beads (Perkin Elmer) in water. The microtiter plates were sealed and measured in a Microbeta scintillation counter (PerkinElmer Wallac). IC50 values were determined from sigmoidal curves by plotting percentage PDE3A activity vs log compound concentration.

[4] = test system: SK-MEL-3 (melanoma); assay: Cell proliferation measurement (Cell Titer Glo), SK-MEL-3; assay type: cell-based; conditions: Homo sapiens, SK-MEL3, SK-MEL-3 cells, 72 h treatment, read-out: Anti-proliferation IC50 SK-MEL-3 (melanoma)
Procedure: as §1

SMILES | IC50 [1] | IC50 [2] | IC50 [3] | IC50 [4]
O=C1CCC(c2cc(F)c(N3CCCCC3)c(F)c2)=NN1 [Example 16, 6-[3,5-Difluoro-4-(piperidin-1-yl)phenyl]-4,5-dihydropyridazin-3(2H)-one] | 128 nM | 4.86 nM | 405 nM | 9.8 nM
Cc1cc(C2=NNC(=O)CC2)ccc1C1=CCOCC1 [Example 7, 6-[4-(3,6-Dihydro-2H-pyran-4-yl)-3-methylphenyl]-4,5-dihydropyridazin-3(2H)-one] | 35 nM | 55.6 nM | 200 nM | > 100 nM
COc1ccccc1-c1ccc(C2=NNC(=O)CC2)cc1F [Example 62, 6-(2-fluoro-2′-methoxy[1,1′-biphenyl]-4-yl)-4,5-dihydropyridazin-3(2H)-one] | 47 nM | 14 nM | 120 nM | 22.8 nM
O=C1CCC(c2ccc(C3=CCOCC3)cc2)=NN1 [Example 1, 6-[4-(3,6-Dihydro-2H-pyran-4-yl)phenyl]-4,5-dihydropyridazin-3(2H)-one] | 290 nM | 30.9 nM | 470 nM | > 100 nM
N#Cc1ccc(-c2ccc(C3=NNC(=O)CC3)cc2F)cc1 [Example 46, 2′-fluoro-4′-(6-oxo-1,4,5,6-tetrahydropyridazin-3-yl)[1,1′-biphenyl]-4-carbonitrile] | 37 nM | 9.65 nM | 61 nM | 12.7 nM
COc1ccc(C2=NNC(=O)CC2)cc1Cl [Example 10, 6-(3-Chloro-4-methoxyphenyl)-4,5-dihydropyridazin-3(2H)-one] | 110 nM | 31.8 nM | 110 nM | 40.2 nM
O=C1CCC(c2ccc(-c3cncnc3)c(F)c2)=NN1 [Example 40, 6-[3-fluoro-4-(pyrimidin-5-yl)phenyl]-4,5-dihydropyridazin-3(2H)-one] | 140 nM | 37.5 nM | 140 nM | 47.6 nM
O=C1CCC(c2ccc(N3CCOCC3)c(F)c2)=NN1 [Example 25, 6-[3-Fluoro-4-(morpholin-4-yl)phenyl]-4,5-dihydropyridazin-3(2H)-one] | 160 nM | 6.19 nM | 210 nM | 19.9 nM
Cc1cc(C2=NNC(=O)CC2)ccc1-c1ccccc1O [Example 102, 6-(2′-hydroxy-2-methyl[1,1′-biphenyl]-4-yl)-4,5-dihydropyridazin-3(2H)-one] | 555 nM | 23.4 nM | 460 nM | > 100 nM
CCc1ccccc1-c1ccc(C2=NNC(=O)CC2)cc1C [Example 117, 6-(2′-ethyl-2-methyl[1,1′-biphenyl]-4-yl)-4,5-dihydropyridazin-3(2H)-one] | 440 nM | 51.4 nM | 540 nM | > 100 nM
Cc1ncc(-c2ccc(C3=NNC(=O)CC3)cc2F)cn1 [Example 31, 6-[3-fluoro-4-(2-methylpyrimidin-5-yl)phenyl]-4,5-dihydropyridazin-3(2H)-one] | 93 nM | 34.4 nM | 160 nM | 47.3 nM
Cc1cc(C2=NNC(=O)CC2)ccc1-c1ccc(F)c(F)c1F [Example 97, 6-(2′,3′,4′-trifluoro-2-methyl[1,1′-biphenyl]-4-yl)-4,5-dihydropyridazin-3(2H)-one] | 120 nM | 12.1 nM | 170 nM | 82 nM

Results, then the compound that gave them:

IC50 [1] | IC50 [2] | IC50 [3] | IC50 [4] | SMILES
230 nM | 91.6 nM | 230 nM | > 100 nM | Cc1ccc(C)c(-c2ccc(C3=NNC(=O)CC3)cc2F)c1 [Example 88, 6-(2-fluoro-2′,5′-dimethyl[1,1′-biphenyl]-4-yl)-4,5-dihydropyridazin-3(2H)-one]
175 nM | 7.01 nM | 190 nM | 36.9 nM | Cc1ccc(-c2ccc(C3=NNC(=O)CC3)cc2C)c(F)c1 [Example 94, 6-(2′-fluoro-2,4′-dimethyl[1,1′-biphenyl]-4-yl)-4,5-dihydropyridazin-3(2H)-one]
83 nM | 4.69 nM | 250 nM | 7.7 nM | Cc1ccc(-c2ccc(C3=NNC(=O)CC3)cc2F)cc1F [Example 58, 6-(2,3′-difluoro-4′-methyl[1,1′-biphenyl]-4-yl)-4,5-dihydropyridazin-3(2H)-one]
220 nM | 16.1 nM | 270 nM | 41 nM | Cc1cc(-c2ccc(C3=NNC(=O)CC3)cc2F)ccc1F [Example 84, 6-(2,4′-difluoro-3′-methyl[1,1′-biphenyl]-4-yl)-4,5-dihydropyridazin-3(2H)-one]
690 nM | 63.6 nM | 820 nM | > 100 nM | Cc1ccc(-c2ccc(C3=NNC(=O)CC3)cc2F)cc1C [Example 35, 6-(2-fluoro-3′,4′-dimethyl[1,1′-biphenyl]-4-yl)-4,5-dihydropyridazin-3(2H)-one]
190 nM | 9.26 nM | 270 nM | 52.4 nM | Cc1ccc(-c2ccc(C3=NNC(=O)CC3)cc2C)cc1F [Example 107, 6-(3′-fluoro-2,4′-dimethyl[1,1′-biphenyl]-4-yl)-4,5-dihydropyridazin-3(2H)-one]
60 nM | 5.34 nM | 180 nM | 11.8 nM | Cc1ccc(F)cc1-c1ccc(C2=NNC(=O)CC2)cc1F [Example 57, 6-(2,5′-difluoro-2′-methyl[1,1′-biphenyl]-4-yl)-4,5-dihydropyridazin-3(2H)-one]
50 nM | 7.23 nM | 57 nM | 9.88 nM | Cc1ccc(-c2ccc(C3=NNC(=O)CC3)cc2F)cn1 [Example 34, 6-[3-fluoro-4-(6-methylpyridin-3-yl)phenyl]-4,5-dihydropyridazin-3(2H)-one]
92 nM | 5.26 nM | 120 nM | 9.51 nM | O=C1CCC(c2ccc(-c3ccc(F)c(F)c3)c(F)c2)=NN1 [Example 51, 6-(2,3′,4′-trifluoro[1,1′-biphenyl]-4-yl)-4,5-dihydropyridazin-3(2H)-one]
89 nM | 60.2 nM | 100 nM | > 100 nM | Nc1cc(-c2ccc(C3=NNC(=O)CC3)cc2F)ccn1 [Example 28, 6-[4-(2-aminopyridin-4-yl)-3-fluorophenyl]-4,5-dihydropyridazin-3(2H)-one]
180 nM | 45.9 nM | 200 nM | > 100 nM | Cc1cccc(-c2ccc(C3=NNC(=O)CC3)cc2C)c1 [Example 120, 6-(2,3′-dimethyl[1,1′-biphenyl]-4-yl)-4,5-dihydropyridazin-3(2H)-one]
200 nM | 2.67 nM | 280 nM | 9.92 nM | Cc1cc(C2=NNC(=O)CC2)ccc1-c1ccc(Cl)cc1 [Example 122, 6-(4′-chloro-2-methyl[1,1′-biphenyl]-4-yl)-4,5-dihydropyridazin-3(2H)-one]
